Blank lines part the entries; values can stand above or below the molecule they belong to.
What was measured:
[1] = tested on: BaF3-CSF1R-1600 cells (express ETV6-CSF1R fusion protein); experiment: MTS cell viability assay, BaF3-CSF1R-1600; format: cell-based; conditions: 72 h, read-out: Cellular Proliferation Assay BaF3-CSF1R GI50
Experimental: (§1) Studies were conducted to evaluate […] anticancer activity of certain compounds described in EXAMPLE 1 using 3-(4,5-dimethylthiazol-2-yl)-5-(3-carboxymethoxyphenyl)-2-(4-sulfophenyl)-2H-tetrazolium) (MTS) cell viability assays. Results from these studies are shown in Table 2 below (see columns 3 and 4).
(§2) The cell lines M-NFS-60 (ATCC® CRL-1838™) and BaF3-CSF1R-1600 were obtained from American Type Culture Collection (ATCC, Manassas, VA, USA). The stable BaF3-CSF1R-1600 cell line expresses ETV6-CSF1R fusion protein consisting of N-terminal ETS-variant gene 6 protein (ETV6 residues M1-G337) and CSF1R tyrosine kinase (CSF1R residues L533-C972). The M-NSF-60 and BaF3-CSF1R-1600 cells were cultured in RPMI1640 medium supplemented with 10% fetal bovine serum, 0.05 mM 2-ME, 10 U/ml penicillin, and 10 µg/ml streptomycin at 37° C. and 5% CO2.
(§3) M-NFS-60 and BaF3-CSF1R-1600 cells were seeded in 96-well plates at a density of 10000 cells/100 μl and 8000 cells/100 μl per well, respectively, for 16 h and treated with vehicle or various concentrations of test compounds in medium for 72 h. Viable cells were quantified using the MTS method (Promega, Madison, WI, USA) according to manufacturer's recommended protocol. The results were determined by measuring absorbance at 490 nm using a plate reader (Victor 2). The GI50 value was defined as the amount of compound that caused 50% reduction in cell viability in comparison with DMSO-treated (vehicle) control and was calculated using Prism GraphPad Prism version 6 software (GraphPad).

[2] = tested on: M-NFS-60 cells; experiment: MTS cell viability assay, M-NFS-60; format: cell-based; conditions: 72 h, read-out: Cellular Proliferation Assay M-NFS-60 (nM) GI50
Experimental: as §1, §2, §3

[3] = target: T1, CSF1R kinase (recombinant N-terminal GST-CSF1R, residues L534-C972) (Homo sapiens, UniProt P07333); experiment: CSF1R Kinase-Glo assay; format: biochemical; conditions: 40 μM ATP, 30° C. 180 min, read-out: Enzymatic Assay CSF1R enzyme IC50
T1 construct: Recombinant N-terminal GST-CSF1R (CSF1R residues L534-C972) containing the CSFIR kinase domain; made in house; host or cells: Sf9 insect cells
T1 sequence (P07333 534-972): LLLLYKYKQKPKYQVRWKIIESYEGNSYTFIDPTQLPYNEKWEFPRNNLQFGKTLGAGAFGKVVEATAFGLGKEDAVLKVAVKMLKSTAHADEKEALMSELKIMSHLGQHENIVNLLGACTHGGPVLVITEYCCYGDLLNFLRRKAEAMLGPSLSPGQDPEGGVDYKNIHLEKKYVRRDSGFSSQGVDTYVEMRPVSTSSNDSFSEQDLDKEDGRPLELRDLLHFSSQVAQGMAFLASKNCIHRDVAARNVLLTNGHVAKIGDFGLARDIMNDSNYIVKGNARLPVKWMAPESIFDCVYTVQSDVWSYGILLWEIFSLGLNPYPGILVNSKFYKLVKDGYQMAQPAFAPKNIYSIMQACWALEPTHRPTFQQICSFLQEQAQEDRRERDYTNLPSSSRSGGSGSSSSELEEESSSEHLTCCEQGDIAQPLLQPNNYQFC
Experimental: A study was conducted to test certain compounds described in EXAMPLE 1 in inhibiting CSF1R kinase activity.
Activity of CSF1R kinase was determined using a CSF1R Kinase-Glo assay. Recombinant N-terminal GST-CSF1R (CSF1R residues L534-C972) containing the CSFIR kinase domain was expressed in Sf9 insect cells and purified. The kinase assay was carried out in 96-well plates at 30° C. for 180 min with the tested compounds in a final volume of 50 μl including the following components: 25 mM Tris-HCl pH 7.4, 4 mM MnCl2, 10 mM MgCl2, 0.01% BSA, 0.5 mM NA3VO4, 0.02% Triton X-100, 40 μM ATP, 2 mM DTT and 20 μM poly(Glu,Tyr) 4:1 peptide, and 600 ng recombinant GST-CSF1R. Following incubation, 50 μl Kinase-Glo Plus Reagent (Promega, Madison, WI, USA) was added and the mixture was incubated at 25° C. for 20 min. A 70-μL aliquot of each reaction mixture was transferred to a black microtiter plate and luminescence was measured on Wallac Vector 1420 multilabel counter (PerkinElmer, Shelton, CT, USA). Percentage inhibition values were obtained by comparison of reaction rate with the rates in control wells (i.e., in the absence of test compound). IC50 values were calculated from a series of percentage inhibition values determined at a range of test compound concentrations using GraphPad Prism version 6 software (GraphPad, San Diego, CA, USA).

SMILES: COC1CCN(c2ccc3c(Oc4ccc(NC(=O)Nc5ccccc5)cc4)ncnc3c2)CC1 [Compound 2]
GI50 [1]: 20 to 100 nM
GI50 [2]: 20 to 100 nM
IC50 [3]: 20 to 100 nM

SMILES: CN(C)c1ccc2c(Oc3ccc(NC(=O)Nc4ccccc4)cc3)ncnc2c1 [Compound 4, 1-(4-((7-(dimethylamino)quinazolin-4-yl)oxy)phenyl)-3-phenylurea]
GI50 [1]: 20 to 100 nM
GI50 [2]: 20 to 100 nM
IC50 [3]: 20 to 100 nM

SMILES: O=C(Nc1ccccc1)Nc1ccc(Oc2ncnc3cc(N[C@@H]4CCCC[C@H]4O)ccc23)cc1 [Compound 5]
GI50 [2]: 100 to 1000 nM
IC50 [3]: 20 to 100 nM

SMILES: O=C(Nc1ccccc1)Nc1ccc(Oc2ncnc3cc(Br)ccc23)cc1 [Compound 7]
IC50 [3]: > 1000 nM

SMILES: O=C(Nc1ccccc1)Nc1ccc(Oc2ncnc3cc(N4CCCC4)ccc23)cc1 [Compound 9]
GI50 [1]: 20 to 100 nM
GI50 [2]: 20 to 100 nM
IC50 [3]: 20 to 100 nM

SMILES: COC[C@H]1CCCN1c1ccc2c(Oc3ccc(NC(=O)Nc4ccccc4)cc3)ncnc2c1 [Compound 10]
GI50 [1]: 100 to 1000 nM
GI50 [2]: 100 to 1000 nM
IC50 [3]: 20 to 100 nM

SMILES: COCCCNc1ccc2c(Oc3ccc(NC(=O)Nc4ccccc4)cc3)ncnc2c1 [Compound 12]
IC50 [3]: 20 to 100 nM

SMILES: CN(C)c1ccc2c(Oc3ccc(NC(=O)Nc4ccc(C(F)(F)F)cc4)cc3)ncnc2c1 [Compound 13]
IC50 [3]: 100 to 1000 nM

SMILES: CN(C)c1ccc2c(Oc3ccc(NC(=S)Nc4ccccc4)cc3)ncnc2c1 [Compound 22]
IC50 [3]: 100 to 1000 nM

SMILES: CCc1cc(Oc2ncnc3cc(N(C)C)ccc23)ccc1NC(=O)NCc1ccc(C(F)(F)F)nc1 [Compound 29]
IC50 [3]: 100 to 1000 nM

SMILES: Cc1cc(Oc2ncnc3cc(N(C)C)ccc23)c(C)cc1NC(=O)NCc1ccc(C(F)(F)F)nc1 [Compound 35]
IC50 [3]: > 1000 nM

SMILES: CCOc1cc2ncnc(Oc3ccc(NC(=O)NCc4ccc(C(F)(F)F)nc4)cc3)c2cc1F [Compound 41]
GI50 [1]: 100 to 1000 nM
IC50 [3]: 20 to 100 nM

SMILES: CN(C)c1ccc2c(Oc3ccc(NC(=O)NCC4CCCCC4)cc3)ncnc2c1 [Compound 50]
IC50 [3]: 20 to 100 nM

SMILES: CN(C)c1ccc2c(Oc3ccc(NC(=O)NCc4cccnc4)cc3)ncnc2c1 [Compound 54]
IC50 [3]: 100 to 1000 nM

SMILES: COc1ccc(CNC(=O)Nc2ccc(Oc3ncnc4cc(N(C)C)ccc34)cc2)cc1OC [Compound 55]
IC50 [3]: 20 to 100 nM

SMILES: CN(C)c1ccc2c(Oc3ccc4c(cnn4C(=O)NCc4ccc(C(F)(F)F)nc4)c3)ncnc2c1 [Compound 69]
IC50 [3]: > 1000 nM

SMILES: COCCCNC(=O)c1cc(Oc2ccc(NC(=O)Nc3ccccc3)cc2)ccn1 [Compound 72]
IC50 [3]: > 1000 nM

SMILES: CN(C)c1ccc2c(Oc3cnc4c(ccn4C(=O)NCc4ccc(C(F)(F)F)nc4)c3)ncnc2c1 [Compound 83]
IC50 [3]: 100 to 1000 nM

SMILES: O=C(NCc1ccc(C(F)(F)F)nc1)Nc1ccc(Oc2ncnc3[nH]ccc23)cc1 [Compound 93]
IC50 [3]: 20 to 100 nM

Now from value to molecule, other results behind:

GI50 [1]: 100 to 1000 nM
IC50 [3]: 20 to 100 nM
SMILES: O=C(Nc1ccccc1)Nc1ccc(Oc2ncnc3cc(N4CCC[C@@H]4CO)ccc23)cc1 [Compound 1]
GI50 [2]: 100 to 1000 nM

GI50 [1]: 20 to 100 nM
IC50 [3]: 20 to 100 nM
SMILES: CN1CCN(c2ccc3c(Oc4ccc(NC(=O)Nc5ccccc5)cc4)ncnc3c2)CC1 [Compound 3]
GI50 [2]: 20 to 100 nM

IC50 [3]: 20 to 100 nM
SMILES: COC[C@@H]1CCCN1c1ccc2c(Oc3ccc(NC(=O)Nc4ccccc4)cc3)ncnc2c1 [Compound 6]

IC50 [3]: 100 to 1000 nM
SMILES: O=C(Nc1ccccc1)Nc1ccc(Oc2ncnc3cc(F)ccc23)cc1 [Compound 8]

IC50 [3]: 20 to 100 nM
SMILES: CN(C)c1ccc2c(Oc3ccc(NC(=O)NCc4ccc(C(F)(F)F)nc4)c(F)c3)ncnc2c1 [Compound 36]
GI50 [2]: 100 to 1000 nM

IC50 [3]: > 1000 nM
SMILES: Cc1cc(Oc2ncnc3cc(N(C)C)ccc23)ccc1NC(=O)NCc1ccc(C(F)(F)F)nc1 [Compound 38]

IC50 [3]: < 20 nM
SMILES: CN(CCCO)c1ccc2c(Oc3ccc(NC(=O)NCc4ccc(C(F)(F)F)nc4)cc3)ncnc2c1 [Compound 39]
GI50 [2]: 100 to 1000 nM

IC50 [3]: > 1000 nM
SMILES: CN(C)c1ccc2c(Oc3ccc(N(C)C(=O)NCc4ccc(C(F)(F)F)nc4)cc3)ncnc2c1 [Compound 47]

IC50 [3]: 100 to 1000 nM
SMILES: CN(C)c1ccc2c(Oc3ccc(NC(=O)Nc4cccc5ccccc45)cc3)ncnc2c1 [Compound 52]

IC50 [3]: 100 to 1000 nM
SMILES: CN(C)c1ccc2c(Oc3ccc(NC(=O)Nc4cccc(C(F)(F)F)c4)cc3)ncnc2c1 [Compound 53]

IC50 [3]: 20 to 100 nM
SMILES: CN(C)c1ccc2c(Oc3ccc(NC(=O)NCc4ccc(C#N)cc4)cc3)ncnc2c1 [Compound 60]

IC50 [3]: 100 to 1000 nM
SMILES: CN(C)c1ccc2c(Oc3ccc(NC(=O)NCc4ccc(C(F)(F)F)cc4)c(F)c3)ncnc2c1 [Compound 61]

GI50 [1]: 100 to 1000 nM
IC50 [3]: < 20 nM
SMILES: CN(C)c1ccc2c(Oc3ccc(NC(=O)NCc4c(F)c(F)c(F)c(F)c4F)cc3)ncnc2c1 [Compound 62]

IC50 [3]: > 1000 nM
SMILES: COc1ccc(CNC(=O)Nc2ccc(Oc3ncnc4cc(N(C)C)ccc34)cc2C)cc1 [Compound 64]

IC50 [3]: 100 to 1000 nM
SMILES: CN(C)c1ccc2c(Nc3ccc(NC(=O)Nc4ccccc4)cc3)ncnc2c1 [Compound 71]

IC50 [3]: 20 to 100 nM
SMILES: CN(C)c1ccc2c(Oc3ccc(NC(=O)NCc4ccc(C(F)(F)F)nc4)cc3)ccnc2c1 [Compound 73]

IC50 [3]: > 1000 nM
SMILES: CN(C)c1ccc2c(Oc3ccc(NC(=O)NCc4ccc(C(F)(F)F)nc4)cc3)c(C#N)cnc2c1 [Compound 75]

IC50 [3]: 100 to 1000 nM
SMILES: O=C(NCc1ccc(C(F)(F)F)nc1)Nc1ccc(Oc2ccnc(C(=O)NCCCN3CCOCC3)c2)cc1 [Compound 77]

IC50 [3]: 100 to 1000 nM
SMILES: CN(C)c1ccc2c(Oc3ccc(NC(=O)NCc4ccn(C)n4)cc3)ncnc2c1 [Compound 84]

IC50 [3]: 20 to 100 nM
SMILES: Cn1cc(-c2ccc3c(Oc4ccc(NC(=O)NCc5ccc(C(F)(F)F)nc5)cc4)ncnc3c2)cn1 [Compound 85]

IC50 [3]: > 1000 nM
SMILES: COC(C)(C)CNC(=O)Nc1ccc(Oc2ncnc3cc(N(C)C)ccc23)cc1 [Compound 87]

IC50 [3]: 100 to 1000 nM
SMILES: CN(C)c1ccc2c(Oc3ccc4c(ccn4C(=O)NCc4ccc(C(F)(F)F)nc4)n3)ncnc2c1 [Compound 89]

IC50 [3]: 100 to 1000 nM
SMILES: CN(C)c1ccc2c(Oc3ccc(NC(=O)NCC(C)(C)C)cc3)ncnc2c1 [Compound 90]

IC50 [3]: 20 to 100 nM
SMILES: CNc1ccc2c(Oc3ccc(NC(=O)Nc4ccccc4)cc3)ncnc2c1 [Compound 107]
